Bounds are passed on as bounds.

The test system of one series is TK+ VZV strain OKA. In words: microbe, parasite or virus in culture. The format is cell-based, Varicella zoster virus. The settings on record: Human alphaherpesvirus 3, HEL 299, read-out: Antiviral Activity (EC50) TK+ VZV Strain OKA.
In series [1] the test system is SARS-CoV-2 UC-1074 (Wuhan). In words: Cytopathic effect reduction, SARS-CoV-2 UC-1074 (Wuhan) in Vero cells. Format: cell-based. The settings on record: Severe acute respiratory syndrome coronavirus 2, UC1074, CPE reduced by 50%, 100 TCID50, read-out: Antiviral Activity (EC50) UC-1074 (Wuhan). (In general: Damage to the host cells serves as the signal in cytopathic effect assays.)

Series [2] relates to SARS-CoV-2 B1.1 529 BA.1 (Omicron). Description: Cytopathic effect reduction, SARS-CoV-2 B1.1 529 BA.1 (Omicron) in Vero cells. Format: cell-based. The settings on record: Severe acute respiratory syndrome coronavirus 2, CPE reduced by 50%, read-out: Antiviral Activity (EC50) B1.1 529 BA.1 (Omicron).
Another series has as its system HEL299 cells. To be noted: minimum cytotoxic concentration, microscopically detectable alteration of cell morphology.
Another series concerns Vero cells. To be noted: minimum cytotoxic concentration, microscopically detectable alteration of cell morphology.
The next series has as its system TK- VZV strain 07-1. Description: microbe, parasite or virus in culture. To be noted: Human alphaherpesvirus 3, HEL 299, read-out: Antiviral Activity (EC50) TK− VZV Strain 07-1.
In series [3] the test system is SARS-CoV-2 NVDBB-2220 (UK). In words: Cytopathic effect reduction, SARS-CoV-2 NVDBB-2220 (UK) in Vero cells. Format: cell-based. To be noted: Severe acute respiratory syndrome coronavirus 2, CPE reduced by 50%, 100 TCID50, read-out: Antiviral Activity (EC50) NVDBB-2220 (UK).
Series [4] deals with SARS-CoV-2 860-J1 (Delta). In words: Cytopathic effect reduction, SARS-CoV-2 860-J1 (Delta) in Vero cells. Format: cell-based. The settings on record: Severe acute respiratory syndrome coronavirus 2, CPE reduced by 50%, 100 TCID50, read-out: Antiviral Activity (EC50) 860-J1 (Delta).
The nature of another series: in vitro. The settings on record: green monkey.
Series [5] addresses T1, SARS-CoV-2 N-protein and stem-loop vgRNA fragment condensates (Severe acute respiratory syndrome coronavirus 2, UniProt P0DTC9).
T1 construct: His-tag; made in house
In words: Cell-free LLPS assay, N-protein:vgRNA condensates. The format is biochemical. To be noted: 20 µM compound.

Series [6] is described as follows: Cell growth inhibition in HEL299 cells, Coulter Counter. Format: cell-based. To be noted: human, 3 days of cell growth, read-out: Cytotoxicity Cell Growth (CC50).
Experimental: (§1) Cells were seeded at a rate of 5 × 10^3 cells/well into 96-well plates and allowed to proliferate for 24 h. Then, a medium containing different concentrations of the test compounds, starting at 100 mM, was added. After 3 days of incubation at 37 °C, the cell count was determined with a Beckman Coulter counter or, alternatively, cell viability was determined with the colorimetric formazan-based MTS assay. […] The cytotoxic effects of the compounds were also assessed by evaluating the MCC (minimum cytotoxic concentration that causes a microscopically detectable alteration of cell morphology).
The subject of a further series is HCoV 229E. In words: Cytopathic effect reduction, HCoV 229E. Format: cell-based, Human coronavirus 229E. The settings on record: Human coronavirus 229E; reduction of virus-induced cytopathic effect by 50%; virus input 100 TCID50; read-out: Antiviral Activity (EC50) HCoV 229E.
A further series concerns HCoV OC43. Description: Cytopathic effect reduction, HCoV OC43. Format: cell-based, Human coronavirus OC43. To be noted: Betacoronavirus 1, OC43; reduction of virus-induced cytopathic effect by 50%; virus input 100 TCID50; read-out: Antiviral Activity (EC50) HCoV OC43.
A further series deals with HCoV NL63. Description: Cytopathic effect reduction, HCoV NL63. To be noted: Human coronavirus NL63; reduction of virus-induced cytopathic effect by 50%; virus input 100 TCID50; read-out: Antiviral Activity (EC50) HCoV NL63. The format is cell-based, Human coronavirus NL63.
A further series concerns RSV (Long). Description: Cytopathic effect reduction, RSV (Long). The format is cell-based, Respiratory syncytial virus. The settings on record: human respiratory syncytial virus; reduction of virus-induced cytopathic effect by 50%; virus input 100 TCID50; read-out: Antiviral Activity (EC50) RSV Long.
Series [7] is described as follows: Cytotoxicity in HEL299 cells, MTS assay. The format is cell-based, Human. To be noted: human, HEL299 cells, cell growth reduced by 50%. On the technique in general: Tetrazolium dyes change colour on reduction, which living cells bring about.
Experimental: as §1
Series [8] can be described thus: Cytotoxicity in Huh7 cells, MTS assay. Format: cell-based, Human. To be noted: human, Huh7 cells, cell growth reduced by 50%.
Experimental: as §1
The target of series [9] is SARS-CoV-2 RdRp (nsp12, nsp7-nsp8) (Severe acute respiratory syndrome coronavirus 2, UniProt P0DTD1). In words: In vitro transcription assay with SARS-CoV-2 RdRp. The settings on record: RdRp 1 µM, RNA substrate 25 nM, 100 µM NTPs, 30 °C; read-out: IC50, inhibition of RdRp activity (RNA primer extension). Format: biochemical.

As to `COc1ccc(C(OC[C@H]2O[C@@H](n3ccc(N)nc3=O)[C@H](O)[C@@H]2O)(c2ccccc2)c2ccc(OC)cc2)cc1` [Compound 9b, 4-amino-1-((2R,3R,4S,5R)-5-((bis(4-methoxyphenyl)(phenyl)methoxy)methyl)-3,4-dihydroxytetrahydrofuran-2-yl)pyrimidin-2(1H)-one], the EC50 in the series on TK+ VZV strain OKA is over 4 µM; in series [1], over 20 µM; in series [2], over 20 µM; in the series on TK- VZV strain 07-1, over 20 µM. Further, the figures for the “Cytotoxicity Cell Morphology (MCC)” value with HEL299 cells and in the series on Vero cells were at least 20 μM and 100 μM, respectively.

As for `CC(C)C(=O)OC[C@H]1O[C@@H](n2ccc(NO)nc2=O)[C@H](O)[C@@H]1O` [Molnupiravir], the EC50 in [1] is 5.52 ± 0.28 µM; in series [3], 3.08 ± 2.12 µM; in series [4], 5.78 ± 0.29 µM; in [2] it was 5.2 ± 0.23 µM. The “Cytotoxicity Cell Morphology (MCC)” value in the series on Vero cells was over 100 μM. This molecule showed a CC50 in “in vitro” of over 100 µM.

On to `COc1ccc(C(OC[C@H]2O[C@@H](n3ccc(N)nc3=O)C[C@@H]2O)(c2ccccc2)c2ccc(OC)cc2)cc1` [Compound 9a, 4-amino-1-((2R,4S,5R)-5-((bis(4-methoxyphenyl)(phenyl)methoxy)methyl)-4-hydroxytetrahydrofuran-2-yl)pyrimidin-2(1H)-one], for which the EC50 with TK+ VZV strain OKA is over 20 µM; in series [1], over 100 µM; in [2] it was over 100 µM; with TK- VZV strain 07-1 it was over 20 µM. For the same molecule, the “effect on LLPS / condensates (summary in words)” value in series [5] is reported as “reduced droplet density but did not prevent LLPS”. Besides, in series [5] (3 µM N-protein, 6 µM RNA), the “decrease in the partitioning coefficient” value was “approximately 4 fold”. Further, the “Cytotoxicity Cell Morphology (MCC)” value with HEL299 cells was 100 μM; with Vero cells it was over 100 μM.

For `COc1ccc2c(c1)nc1ccn([C@H]3C[C@H](O)[C@@H](CO)O3)c(=O)n12` [Compound 8a, 2-((2R,4S,5R)-4-hydroxy-5-(hydroxymethyl)tetrahydrofuran-2-yl)-7-methoxybenzo[4,5]imidazo[1,2-c]pyrimidin-1(2H)-one], the EC50 (in the series with TK+ VZV strain OKA; in series [1]; in [2]; in the series with TK- VZV strain 07-1) was over 20 µM throughout. In addition, the “Cytotoxicity Cell Morphology (MCC)” value in the series with HEL299 cells and with Vero cells was 100 μM each time.

With `O=c1[nH]c(=O)n([C@H]2C[C@H](O)[C@@H](CO)O2)cc1/C=C/Br` [Brivudine, reference compound], the EC50 came out at 0.1 ± 0.07 µM in the series on TK+ VZV strain OKA and 0.14 ± 0.03 µM in the series with TK- VZV strain 07-1. The CC50 at 3 days in series [6] was over 100 µM. Moreover, the “Cytotoxicity Cell Morphology (MCC)” value in the series on HEL299 cells is listed as over 100 μM.

Consider `COc1ccc(C(OC[C@H]2O[C@@H](n3ccc4nc5cc(O)ccc5n4c3=O)[C@H](O)[C@@H]2O)(c2ccccc2)c2ccc(OC)cc2)cc1` [Compound 3b, 2-((2R,3R,4S,5R)-5-((bis(4-methoxyphenyl)(phenyl)methoxy)methyl)-3,4-dihydroxytetrahydrofuran-2-yl)-7-hydroxybenzo[4,5]imidazo[1,2-c]pyrimidin-1(2H)-one], for which the EC50 is 4.1 ± 2 µM in the series with HCoV 229E; under 0.8 µM in the series with HCoV OC43; over 100 µM with HCoV NL63; 5.7 ± 0.8 µM with RSV (Long); over 4 µM in the series with TK+ VZV strain OKA; over 20 µM in series [1]. Also, the EC50 is over 20 µM in [2] and over 4 µM in the series with TK- VZV strain 07-1. Besides, the results for the CC50 at 3 days in series [7] and in [8] were over 20 µM and under 0.8 µM, respectively. Besides, in series [9], the IC50 is 95 ± 4 µM. Moreover, the “effect on LLPS / condensates (summary in words)” value in series [5] is “minor”. In addition, the “Cytotoxicity Cell Morphology (MCC)” value in the series on HEL299 cells and in the series with Vero cells was 20 μM in each case.

As to `Nc1nc2c(ncn2COCCO)c(=O)[nH]1` [Aciclovir, reference compound], the CC50 at 3 days in [6] is over 100 µM. The “Cytotoxicity Cell Morphology (MCC)” value with HEL299 cells is over 100 μM.

Take `COc1ccc(C(OC[C@H]2O[C@@H](n3ccc4nc5cc(OC)ccc5n4c3=O)[C@H](O)[C@@H]2O)(c2ccccc2)c2ccc(OC)cc2)cc1` [Compound 7b, 2-((2R,3R,4S,5R)-5-((bis(4-methoxyphenyl)(phenyl)methoxy)methyl)-3,4-dihydroxytetrahydrofuran-2-yl)-7-methoxybenzo[4,5]imidazo[1,2-c]pyrimidin-1(2H)-one]: the EC50 in the series on TK+ VZV strain OKA is 30.7 ± 4.68 µM; in series [1] it was over 20 µM; in series [2], over 20 µM; in the series on TK- VZV strain 07-1, 7.13 ± 0.94 µM. The CC50 at 3 days in series [6] turned out to be 10.3 ± 5.63 µM. Besides, the “Cytotoxicity Cell Morphology (MCC)” value was at least 100 μM in the series on HEL299 cells and over 100 μM with Vero cells.

For `CCC(CC)COC(=O)[C@H](C)N[P@](=O)(OC[C@H]1O[C@@](C#N)(c2ccc3c(N)ncnn23)[C@H](O)[C@@H]1O)Oc1ccccc1` [Remdesivir, reference compound], the EC50 with HCoV 229E stood at 0.03 µM; in the series with HCoV OC43, 0.03 µM; with HCoV NL63, 0.03 µM; in the series on RSV (Long), 0.02 µM; in [1] it was 1.96 ± 1 µM; in [3], 0.72 ± 0.15 µM. Moreover, the EC50 in series [4] was found to be 3.23 ± 0.61 µM; in series [2] it was 0.91 ± 0.17 µM. In addition, the CC50 at 3 days in series [7] and in series [8] was over 10 µM throughout. Besides, the “Cytotoxicity Cell Morphology (MCC)” value in the series on Vero cells is on record as at least 40 μM. For the same molecule, the CC50 in “in vitro” was at least 40 µM.

Turning to `CCCCCCOc1ccc2c(c1)nc1cc[nH]c(=O)n12` [Compound 6b, 7-(hexyloxy)benzo[4,5]imidazo[1,2-c]pyrimidin-1(2H)-one], the EC50 in the series on HCoV 229E, in the series with HCoV OC43, in the series with HCoV NL63 and with RSV (Long) was over 100 µM each time. Moreover, the CC50 at 3 days in series [7] and in series [8] was over 100 µM throughout.

Consider `COc1ccc2c(c1)nc1ccn([C@@H]3O[C@H](CO)[C@@H](O)[C@H]3O)c(=O)n12` [Compound 8b, 2-((2R,3R,4S,5R)-3,4-dihydroxy-5-(hydroxymethyl)tetrahydrofuran-2-yl)-7-methoxybenzo[4,5]imidazo[1,2-c]pyrimidin-1(2H)-one], for which the EC50 (in the series on TK+ VZV strain OKA; in [1]; in series [2]; in the series with TK- VZV strain 07-1) was over 20 µM each time. Besides, the “Cytotoxicity Cell Morphology (MCC)” value in the series on HEL299 cells and in the series on Vero cells was 100 μM each time.

With `CCCCCCCCCCCCOc1ccc2c(c1)nc1cc[nH]c(=O)n12` [Compound 6e, 7-(dodecyloxy)benzo[4,5]imidazo[1,2-c]pyrimidin-1(2H)-one], the EC50 in the series with HCoV 229E, in the series with HCoV OC43, with HCoV NL63 and in the series with RSV (Long) was over 100 µM in each case. The CC50 at 3 days in [7] and in series [8] was over 100 µM in each case.

The term IC50 denotes the concentration that inhibits the measured activity by half.
